Source: patent US20090186896A1, “PDE Inhibitors and Combinations Thereof for the Treatment of Urological Disorders” (Bayer HealthCare AG, priority 2005, published 2009)
pEC50, pIC50: −log10 of the molar value. Read-outs that look alike come from different tables or passages of the source.

Legend:
[1] = tested on: bladder of female Guinea Pigs; settings: Gillespie 2004; cited from earlier work
[2] = tested on: rabbit bladder strips; assay: Organ bath, isolated rabbit bladder strips pre-contracted with K+ (50 mmol/l); assay type: cell-based; settings: for % contraction of isolated rabbit bladder strips: percentage of the pre-contraction, mean ± SEM, n = 9; for pIC50: Oryctolagus cuniculus, rabbit bladder strips
Method: White New Zealand rabbits were anesthetized using thiopental. The urinary bladder was removed and placed in ice-cold Krebs-Henseleit buffer of following composition (in mmol/l): NaCl 112, KCl 5.9, CaCl2 2.0 MgCl2 1.2, NaH2PO4 1.2, NaHCO3 25, and glucose 11.5. Equally sized longitudinal strips of approximately 2 mm×10 mm were cut from the bladder body.
Recording of mechanical activity: The preparations were transferred to 20 ml organ baths containing Krebs-Henseleit solution equilibrated with 95% O2, 5% CO2 at 37° C. The strips were mounted between two hooks by means of two clips. For recording of isometric tension one of the hooks was connected to a force transducer which was in turn linked to an amplifier and chart recorder. The other hook was attached to a movable unit, permitting precise adjustment of preload tension. All tissues were then given a 60 min equilibration period during which they were washed and the resting tension was adjusted to 1 g every 20 min.
After the equilibration period, each experiment was started by exposing the preparation to K^+ (50 mmol/l) Krebs-Henseleit solution. The procedure was repeated 3 times and the tissues were washed at least tree times between each contraction.
The bladder strips were than pre-contracted using K^+ (50 mmol/l) Krebs-Henseleit solution. When the contraction was stabilized, an accumulative dose response curve of the compound tested was constructed. The stabilized contraction induced by K^+ (50 mmol/l) Krebs-Henseleit solution was defined as 100% tension. The relaxation was expressed as percentage tension.
Effects of PDE5 and PDE4 inhibitors on isolated rabbit bladder strips: The effects of the PDE5 inhibitor vardenafil and the PDE4 inhibitor Roflumilast on the relaxation the bladder smooth muscle was tested in the organ bath using rabbit bladder strips. Both compounds were tested in the concentration from 10^−9 mol/l to 10^−5 mol/l (FIG. 4, Tab. 2). […] (Table 2)

[3] = tested on: rat prostate strips; assay: Organ bath, isolated rat prostate strips pre-contracted with phenylephrine; assay type: cell-based; settings: for Prostate (% contraction): percentage of the pre-contraction, mean ± SEM, n = 9
Description: (§1) Tissue preparation: Male Wistar rats (200-300 g) were euthanized using carbon dioxide. The tissues were removed and placed in ice-cold Krebs-Henseleit buffer of following composition (in mmol/l): NaCl 112, KCl 5.9, CaCl2 2.0 MgCl2 1.2, NaH2PO4 1.2, NaHCO3 25, glucose 11.5. Four equally sized longitudinal strips of approximately 2 mm×10 mm were cut from the bladder body. Prostate strips were obtained by cutting transversally through the lobes of the prostate gland parallel to the urethra. One ring per animal was dissected from the proximal part of the urethra. Recording of mechanical activity: The preparations were transferred to 20 ml organ baths containing Krebs-Henseleit solution equilibrated with 95% O2, 5% CO2 at 37° C. The strips were mounted between two hooks by means of two clips. For recording of isometric tension one of the hooks was connected to a force transducer which was in turn linked to an amplifier and chart recorder. The other hook was attached to a movable unit, permitting precise adjustment of preload tension. All tissues were then given a 60 min equilibration period during which they were washed and the resting tension was adjusted to 1 g every 20 min. After the equilibration period, each experiment was started by exposing the preparation to K^+ (50 mmol/l) Krebs-Henseleit solution. The procedure was repeated 3 times and the tissues were washed at least tree times between each contraction. Prostatic strips and urethral rings were pre-contracted using 10^−6 mol/l phenylephrine. The effects of the compounds on the prostate tissue were tested in a non-cumulative manner with washing steps between each concentration. Organ bath assay: effects of Vardenafil on isolated rat urogenital organs: The effects of the PDE5 inhibitor Vardenafil on the relaxation of smooth muscles were tested in the organ bath system. The compound was applied in the concentration range from 10^−8 mol/l to 10^−5 mol/l (FIG. 3, Table 1).

[4] = tested on: BOO rats; assay: Conscious cystometry in rat bladder outlet obstruction (BOO) model, non voiding contractions; assay type: in vivo; settings: i.v.
Method: All animal experiments were performed due to the “German Law for the Protection of Laboratory animals” and were conducted due to the approved guidelines of the permission “Tierversuchsvorhaben No 401/A01 M010/M011 vom Sep. 7, 2004”. Experiments were performed with female Sprague Dawley Rats with a body weight between 200-250 g.
Bladder Outlet Obstruction: For the bladder outlet obstruction, rats were anesthetized with a mixture of 1.5-2% isoflurane in a carrier of 66% N2O 33% O2. The abdomen was shaved, opened by a lower midline incision, bladder and urethra were identified and the urethravesical junction was exposed. A 1.0 mm metal rod was placed along the proximal urethra and a 6-0 nylon ligature was tied tightly around the urethra and the rod. The rod was consecutively removed and the abdomen was closed by a silk ligature and cleaned up by 70% ethanol. […]
Conscious cystometry: For cystometry the animals were shortly anaesthetized by isoflurane as described above, placed in a Ballman's cage and fixed. […] The efficacy of treatment was quantified via calculation of the non voiding contractions per micturition interval before and after treatment. […]
Statistical analysis of results: Data are expressed as means±standard error of the means (SEM), and n indicating the number of experiments. The significance of differences between means was determined by paired and unpaired Student's t-test. […]

[5] = tested on: rat bladder strips; assay: Organ bath, isolated rat bladder strips pre-contracted with K+ (50 mmol/l); assay type: cell-based; settings: for Bladder (% contraction): percentage of the pre-contraction, mean ± SEM, n = 9
Description: Tissue preparation: Male Wistar rats (200-300 g) were euthanized using carbon dioxide. The tissues were removed and placed in ice-cold Krebs-Henseleit buffer of following composition (in mmol/l): NaCl 112, KCl 5.9, CaCl2 2.0 MgCl2 1.2, NaH2PO4 1.2, NaHCO3 25, glucose 11.5. Four equally sized longitudinal strips of approximately 2 mm×10 mm were cut from the bladder body. Prostate strips were obtained by cutting transversally through the lobes of the prostate gland parallel to the urethra. One ring per animal was dissected from the proximal part of the urethra. Recording of mechanical activity: The preparations were transferred to 20 ml organ baths containing Krebs-Henseleit solution equilibrated with 95% O2, 5% CO2 at 37° C. The strips were mounted between two hooks by means of two clips. For recording of isometric tension one of the hooks was connected to a force transducer which was in turn linked to an amplifier and chart recorder. The other hook was attached to a movable unit, permitting precise adjustment of preload tension. All tissues were then given a 60 min equilibration period during which they were washed and the resting tension was adjusted to 1 g every 20 min. After the equilibration period, each experiment was started by exposing the preparation to K^+ (50 mmol/l) Krebs-Henseleit solution. The procedure was repeated 3 times and the tissues were washed at least tree times between each contraction. The bladder strips were than pre-contracted using K^+ (50 mmol/l) Krebs-Henseleit solution. When the contraction was stabilized, an accumulative dose response curve of the compound tested was constructed. The stabilized contraction induced by K^+ (50 mmol/l) Krebs-Henseleit solution was defined as 100% tension. The relaxation was expressed as percentage tension. Organ bath assay: effects of Vardenafil on isolated rat urogenital organs: The effects of the PDE5 inhibitor Vardenafil on the relaxation of smooth muscles were tested in the organ bath system. The compound was applied in the concentration range from 10^−8 mol/l to 10^−5 mol/l (FIG. 3, Table 1).

[6] = tested on: rat urethral rings; assay: Organ bath, isolated rat urethral rings pre-contracted with phenylephrine; assay type: cell-based; settings: for Urethra (% contraction): percentage of the pre-contraction, mean ± SEM, n = 9
Description: as §1

[7] = tested on: CYP-treated rats; assay: Anaesthetized cystometry, micturition interval in CYP-treated rats (overactive bladder); assay type: in vivo, rat; settings: i.v.
Method: All animal experiments were performed due to the “German Law for the Protection of Laboratory animals” and were conducted due to the approved guidelines of the permission “Tierversuchsvorhaben No 401/A01 M010/M011 vom Sep. 7, 2004”. Experiments were performed with female Sprague Dawley Rats with a body weight between 200-250 g. Anaesthetized cystometry: For cystometry female SD rats were anaesthetized with urethane (1.2 g/kg, ip). After laparotomy, the bladder was exposed and both ureters were ligated and cut. A polyethylene cannula (PE50) was implanted into the bladder dome, and the abdomen was closed. The bladder catheter was connected to the t-shaped tube to connect a infusion pump (Perfusor® compact; Braun Melsungen) for continuous infusion of saline solution and to connect a pressure transducer (Combitrans; Braun Melsungen) for measurement of intrabladder pressure. The intrabladder pressure signals were registered with the Powerlab System (MLT0698, ADInstrument). […] The effect of treatments was calculated on the micturition interval (corresponding to bladder capacity). […]
Statistical analysis of results: Data are expressed as means i standard error of the means (SEM), and n indicating the number of experiments. The significance of differences between means was determined by paired and unpaired Student's t-test. […]

[8] = tested on: human prostate tissue; settings: in vitro; Ückert 2001; cited from earlier work
[9] = read-out: IC50, relaxation of bladder strips

CC(C)Cn1c(=O)n(C)c(=O)c2[nH]cnc21 [IBMX]
relaxation of bladder [1]: could relax

O=C(Nc1c(Cl)cncc1Cl)c1ccc(OC(F)F)c(OCC2CC2)c1 [Roflumilast]
% contraction of isolated rabbit bladder strips ([2]; 0.001 μmol/l): 100.8 ± 0.6% | % contraction of isolated rabbit bladder strips ([2]; 0.01 μmol/l): 90.1 ± 1.7% | % contraction of isolated rabbit bladder strips ([2]; 0.1 μmol/l): 75.1 ± 2.1% | % contraction of isolated rabbit bladder strips ([2]; 1 μmol/l): 55.8 ± 2.5% | % contraction of isolated rabbit bladder strips ([2]; 10 μmol/l): 40.9 ± 3.3% | pIC50 [2, 9]: 6.59 | pIC50 ([2]; read-out: IC50, relaxing effects on rabbit bladder strips): 6.59

CCCc1nc(C)c2c(=O)[nH]c(-c3cc(S(=O)(=O)N4CCN(CC)CC4)ccc3OCC)nn12 [Vardenafil, 2-(2-Ethoxy-5-(4-ethylpiperazin-1-yl-1-sulfonyl)phenyl)-5-methyl-7-propyl-3H-imidazo (5,1-f) (1,2,4)triazin-4-one]
Prostate (% contraction) ([3]; 0.1 μmol/l): 99.2 ± 3.0% | Prostate (% contraction) ([3]; 1 μmol/l): 76.0 ± 2.3% | Prostate (% contraction) ([3]; 10 μmol/l): 25.3 ± 3.2% | pEC50 ([3]; rat prostate strips, read-out: EC50, relaxation of prostate strips): 5.96 | MED, significant reduction of non voiding contractions (NVC) [4]: 3 mg/kg | Bladder (% contraction) ([5]; 0.001 μmol/l): 94.3 ± 0.9% | Bladder (% contraction) ([5]; 0.01 μmol/l): 91.2 ± 1.3% | Bladder (% contraction) ([5]; 0.1 μmol/l): 89.9 ± 1.8% | Bladder (% contraction) ([5]; 1 μmol/l): 77.8 ± 2.1% | Bladder (% contraction) ([5]; 10 μmol/l): 25.3 ± 3.2% | pEC50 ([5]; rat bladder strips, read-out: EC50, relaxation of bladder strips): 5.30 | Urethra (% contraction) ([6]; 0.001 μmol/l): 88.4 ± 2.4% | Urethra (% contraction) ([6]; 0.01 μmol/l): 88.5 ± 2.1% | Urethra (% contraction) ([6]; 0.1 μmol/l): 77.1 ± 3.9% | Urethra (% contraction) ([6]; 1 μmol/l): 44.9 ± 1.5% | Urethra (% contraction) ([6]; 10 μmol/l): 3.5 ± 1.7% | pEC50 ([6]; rat urethral rings, read-out: EC50, relaxation of urethral rings): 6.02 | % contraction of isolated rabbit bladder strips ([2]; 0.001 μmol/l): 100.9 ± 1.0% | % contraction of isolated rabbit bladder strips ([2]; 0.01 μmol/l): 99.9 ± 0.9% | % contraction of isolated rabbit bladder strips ([2]; 0.1 μmol/l): 95.7 ± 1.7% | % contraction of isolated rabbit bladder strips ([2]; 1 μmol/l): 76.3 ± 3.7% | % contraction of isolated rabbit bladder strips ([2]; 10 μmol/l): 9.6 ± 12.6% | pIC50 [2, 9]: 5.77 | MED, significant increase of micturition interval [7]: 3 mg/kg

CCCOc1ccccc1-c1nc2nn[nH]c2c(=O)[nH]1 [Zaprinast]
relaxation of pre-contracted human prostate tissue [8]: able to relax | relaxation of bladder [1]: ineffective
